Experimental data: patent publication US10138207B2, “Benzomorphan analogs and the use thereof” (priority 2012, dated 2018)

Columns and labels:
μ-opioid receptor [1] = target: T1, μ-opioid receptor (Homo sapiens, UniProt P35372); assay: μ-opioid receptor [35S]GTPγS functional assay, U-2 OS cells; format: biochemical; parameters: expressed in transfected cells; host or cells: U-2 OS; conditions: U-2 OS cells; for EC50: read-out: GTPγS μ EC50; for Emax: relative to DAMGO, read-out: GTPγS μ Emax
κ opioid receptor [2] = target: T2, κ opioid receptor (Homo sapiens, UniProt P41145); assay: κ-opioid receptor [35S]GTPγS functional assay, HEK-293 or CHO cells; format: biochemical; parameters: expressed in transfected cells; host or cells: U-2 OS (in-house membranes); conditions: for Emax: relative to U69,593
Description: Membranes from recombinant HEK-293 cells, CHO or U-2 OS cells expressing the recombinant human κ opioid receptor (κ) were prepared by lysing cells in ice cold hypotonic buffer (2.5 mM MgCl2, 50 mM HEPES, pH 7.4) (10 mL/10 cm dish) followed by homogenization with a tissue grinder/Teflon pestle. Membranes from a cell line naturally expressing kappa opioid receptors can also be used. Membranes were collected by centrifugation at 30,000×g for 15 min at 4° C. and pellets were resuspended in hypotonic buffer to a final concentration of 1-3 mg/mL. Protein concentrations were determined using the BioRad protein assay reagent with bovine serum albumen as standard. Aliquots of κ receptor membranes were stored at −80° C.
Plates were incubated for 30 min at a temperature of about 25° C. with shaking.

κ opioid receptor [3] = target: T2, κ opioid receptor; assay: biochemical; format: binding; parameters: expressed in transfected cells; host or cells: HEK 293 (in-house membrane prep); conditions: HEK-293 or CHO cells
μ-opioid receptor [4] = target: T1, μ-opioid receptor; assay: μ-opioid receptor [35S]GTPγS functional assay, HEK-293 or CHO cells; conditions: for Emax: read-out: GTPγS μ Emax
κ opioid receptor [5] = target: T2, κ opioid receptor; assay: κ-opioid receptor [35S]GTPγS functional assay, U-2 OS cells; format: biochemical; parameters: expressed in transfected cells; host or cells: U-2 OS (in-house membranes); conditions: U-2 OS cells
Description: Membranes from recombinant HEK-293 cells, CHO or U-2 OS cells expressing the recombinant human κ opioid receptor (κ) were prepared by lysing cells in ice cold hypotonic buffer (2.5 mM MgCl2, 50 mM HEPES, pH 7.4) (10 mL/10 cm dish) followed by homogenization with a tissue grinder/Teflon pestle. […] Membranes were collected by centrifugation at 30,000×g for 15 min at 4° C. and pellets were resuspended in hypotonic buffer to a final concentration of 1-3 mg/mL. Protein concentrations were determined using the BioRad protein assay reagent with bovine serum albumen as standard. Aliquots of κ receptor membranes were stored at −80° C.

[6] = HEK-293 or CHO cells, bound in μM, read-out: GTPγS κ EC50
[7] = HEK-293 or CHO cells, read-out: GTPγS κ EC50

T1 sequence (P35372 whole entry, species assumed): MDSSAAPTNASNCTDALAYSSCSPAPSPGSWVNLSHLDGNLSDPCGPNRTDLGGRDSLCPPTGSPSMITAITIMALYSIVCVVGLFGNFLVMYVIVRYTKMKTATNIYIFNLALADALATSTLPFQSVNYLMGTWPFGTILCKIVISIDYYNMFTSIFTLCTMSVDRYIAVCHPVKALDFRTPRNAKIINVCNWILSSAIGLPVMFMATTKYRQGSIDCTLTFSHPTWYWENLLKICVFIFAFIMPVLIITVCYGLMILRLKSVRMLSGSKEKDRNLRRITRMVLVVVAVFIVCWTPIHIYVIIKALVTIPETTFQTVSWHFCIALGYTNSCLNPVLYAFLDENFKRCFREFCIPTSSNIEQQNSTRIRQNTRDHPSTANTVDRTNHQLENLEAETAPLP
T2 sequence (P41145 whole entry): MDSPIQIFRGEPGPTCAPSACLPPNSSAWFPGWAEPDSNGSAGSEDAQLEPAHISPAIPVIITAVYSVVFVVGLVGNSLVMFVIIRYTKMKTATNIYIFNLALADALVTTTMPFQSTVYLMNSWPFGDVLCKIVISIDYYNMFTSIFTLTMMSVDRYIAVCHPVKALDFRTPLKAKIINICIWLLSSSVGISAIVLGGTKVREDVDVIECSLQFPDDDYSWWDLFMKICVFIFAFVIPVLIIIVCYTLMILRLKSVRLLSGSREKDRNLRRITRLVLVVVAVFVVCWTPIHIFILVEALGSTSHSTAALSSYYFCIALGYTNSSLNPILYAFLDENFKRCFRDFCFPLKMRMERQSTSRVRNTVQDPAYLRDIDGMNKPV

| SMILES | EC50 (μ-opioid receptor [1]) | Emax (μ-opioid receptor [1]) | Ki (κ opioid receptor [3]) | Emax (κ opioid receptor [2]; HEK-293 or CHO cells) | EC50 (μ-opioid receptor [4]) | Emax (μ-opioid receptor [4]) | further results |
| --- | --- | --- | --- | --- | --- | --- | --- |
| CN1CC[C@]2(C)c3cc(O)ccc3CC1C2N(C)C(=O)Cc1ccc(S(C)(=O)=O)cc1 (stereo in doubt) [Compound 27, N-((2R,6R,11S)-8-hydroxy-3,6-dimethyl-1,2,3,4,5,6-hexahydro-2,6-methanobenzo[d]azocin-11-yl)-N-methyl-2-(4-(methylsulfonyl)phenyl)acetamide] | 1.51 ± 0.24 nM | 103 ± 2.33% | 0.0352 ± 0.00938 µM | – | – | – | EC50 (κ opioid receptor [2]; [6]): > 20 µM |
| COc1ccc2c(c1)C1(C)CCN(CCC(C(=O)N(C)C)(c3ccccc3)c3ccccc3)C(C2)C1(O)O (centres unmarked) [Compound 7, 4-(11,11-dihydroxy-8-methoxy-6-methyl-1,2,5,6-tetrahydro-2,6-methanobenzo[d]azocin-3(4H)-yl)-N,N-dimethyl-2,2-diphenylbutanamide] | – | – | 0.279 ± 0.0398 µM | -0.33 ± 0.67% | – | – | EC50 (κ opioid receptor [2]; [6]): > 20 µM |
| CN1CC[C@]2(C)c3cc(O)ccc3CC1C2N(C)C(=O)Nc1ccc(C#N)cc1 (stereo in doubt) [Compound 78, 3-(4-cyanophenyl)-1-((2R,6R,11S)-8-hydroxy-3,6-dimethyl-1,2,3,4,5,6-hexahydro-2,6-methanobenzo[d]azocin-11-yl)-1-methylurea] | 6.09 ± 0.45 nM | 109 ± 3.28% | 0.0179 ± 0.00433 µM | – | – | – | EC50 (κ opioid receptor [2]; [6]): > 20 µM |
| CN1CC[C@]2(C)c3cc(O)ccc3CC1C2N(C)CCc1ccccc1 (stereo in doubt) [Compound 29, (2R,6R,11S)-3,6-dimethyl-11-(methyl(phenethyl)amino)-1,2,3,4,5,6-hexahydro-2,6-methanobenzo[d]azocin-8-ol] | 0.044 nM | 100 ± 1.45% | 0.0301 ± 0.0118 µM | 28.2 ± 4.66% | – | – | EC50 (κ opioid receptor [2]; [7]): 0.233 ± 0.0749 µM |
| C[C@]12CCN(CC3CC3)[C@H](Cc3ccc(O)cc31)[C@H]2NS(=O)(=O)c1cccc(C(F)(F)F)c1 [Compound 128, N-((2R,6S,11S)-3-(cyclopropylmethyl)-8-hydroxy-6-methyl-1,2,3,4,5,6-hexahydro-2,6-methanobenzo[d]azocin-11-yl)-3-(trifluoromethyl)benzenesulfonamide] | 0.18 ± 0.069 nM | 47.8 ± 1.25% | – | 40.3 ± 2.19% | 7.67 ± 0.79 nM | 53.5 ± 3.52% | EC50 (κ opioid receptor [2]; [7]): 0.00035 ± 0.00015 µM; EC50 (κ opioid receptor [5]; read-out: GTPγS κ EC50): 0.74 ± 0.13 nM; Emax (κ opioid receptor [5]; relative to U69,593, read-out: GTPγS κ Emax): 90.7 ± 1.45% |
| CN[C@@H]1[C@H]2Cc3ccc(OC)cc3[C@@]1(C)CCN2CC1CC1 [Compound 56, (2R,6R,11S)-3-(cyclopropylmethyl)-8-methoxy-N,6-dimethyl-1,2,3,4,5,6-hexahydro-2,6-methanobenzo[d]azocin-11-amine] | – | – | 0.17 ± 0.0519 µM | 25.7 ± 1.67% | 3810 ± 726 nM | 36.7 ± 7.22% | EC50 (κ opioid receptor [2]): 2.58 ± 0.721 µM |
| CN1CC[C@]2(C)c3cc(O)ccc3CC1C2N(C)C(=O)/C=C/c1ccoc1 (stereo in doubt) [Compound 24, (E)-3-(furan-3-yl)-N-((2R,6R,11S)-8-hydroxy-3,6-dimethyl-1,2,3,4,5,6-hexahydro-2,6-methanobenzo[d]azocin-11-yl)-N-methylacrylamide] | – | – | 0.00117 ± 9e-05 µM | 30.7 ± 2.6% | – | – | EC50 (κ opioid receptor [2]; [7]): 0.178 ± 0.0251 µM |
| CN(C)C(=O)C(CCN1CC[C@]2(C)c3cc(O)ccc3CC1[C@H]2O)(c1ccccc1)c1ccccc1 [Compound 22, 4-((6R,11S)-8,11-dihydroxy-6-methyl-1,2,5,6-tetrahydro-2,6-methanobenzo[d]azocin-3(4H)-yl)-N,N-dimethyl-2,2-diphenylbutanamide] | 300 ± 45.8 nM | 71 ± 3.46% | 0.0257 ± 0.00874 µM | – | – | – | EC50 (κ opioid receptor [2]; [6]): > 20 µM |
| CN1CC[C@]2(C)c3cc(O)ccc3CC1[C@@H]2CC(=O)Nc1ccc(C(=O)O)cc1 [Compound 32, 4-(2-((6S,11R)-8-hydroxy-3,6-dimethyl-1,2,3,4,5,6-hexahydro-2,6-methanobenzo[d]azocin-11-yl)acetamido)benzoic acid] | 233 ± 58.2 nM | 39.8 ± 2.46% | 12.7 ± 2.09 µM | – | 336 ± 92.8 nM | 23 ± 1.53% | – |
| COc1ccc2c(c1)[C@@]1(C)CCN(C)C(C2)[C@@]1(O)c1cccc(C#N)c1 [Compound 60, 3-((6R,11R)-11-hydroxy-8-methoxy-3,6-dimethyl-1,2,3,4,5,6-hexahydro-2,6-methanobenzo[d]azocin-11-yl)benzonitrile] | – | – | – | – | 6090 ± 529 nM | 38.3 ± 0.88% | Ki (κ opioid receptor [3]; bound in μM): > 20 µM |
| CCN(C(=O)/C=C/c1ccoc1)C1C2Cc3ccc(OC)cc3[C@@]1(C)CCN2C (stereo in doubt) [Compound 25, (E)-N-ethyl-3-(furan-3-yl)-N-((2R,6R,11S)-8-methoxy-3,6-dimethyl-1,2,3,4,5,6-hexahydro-2,6-methanobenzo[d]azocin-11-yl)acrylamide] | 49.8 ± 12.1 nM | 102 ± 1.67% | 0.147 ± 0.0184 µM | -1% | – | – | EC50 (κ opioid receptor [2]; [6]): > 20 µM |
| CN1CC[C@]2(C)c3cc(O)ccc3CC1[C@@H]2CC(=O)N1CCC[C@H]1C(=O)O [Compound 55, (2S)-1-(2-((6S,11R)-8-hydroxy-3,6-dimethyl-1,2,3,4,5,6-hexahydro-2,6-methanobenzo[d]azocin-11-yl)acetyl)pyrrolidine-2-carboxylic acid] | – | – | – | – | 5910 ± 422 nM | 71 ± 8.08% | Ki (κ opioid receptor [3]; bound in μM): > 20 µM |
| COC(=O)c1cccc([C@]2(O)C3Cc4ccc(OC)cc4[C@@]2(C)CCN3C)c1 [Compound 62, methyl 3-((6R,11R)-11-hydroxy-8-methoxy-3,6-dimethyl-1,2,3,4,5,6-hexahydro-2,6-methanobenzo[d]azocin-11-yl)benzoate] | – | – | – | – | 7450 ± 470 nM | 24 ± 2.97% | Ki (κ opioid receptor [3]; bound in μM): > 20 µM |
| CN1CC[C@]2(C)c3cc(O)ccc3CC1C2N(C)C(=O)Nc1ccc(C(=O)O)cc1 (stereo in doubt) [Compound 46, 4-(3-((2R,6R,11R)-8-hydroxy-3,6-dimethyl-1,2,3,4,5,6-hexahydro-2,6-methanobenzo[d]azocin-11-yl)-3-methylureido)benzoic acid] | – | – | – | – | 13400 ± 2990 nM | 36.7 ± 3.18% | Ki (κ opioid receptor [3]; bound in μM): > 20 µM |
| CN1CC[C@]2(C)c3cc(O)ccc3CC1[C@@H]2COc1cccc(C(=O)O)c1 [Compound 40, 3-(((6S,11R)-8-hydroxy-3,6-dimethyl-1,2,3,4,5,6-hexahydro-2,6-methanobenzo[d]azocin-11-yl)methoxy)benzoic acid] | – | – | 3.12 ± 0.483 µM | – | 3070 ± 469 nM | 25.7 ± 3.76% | – |
| COc1ccc2c(c1)[C@@]1(C)CCN(C)C(C2)C1N1CCCC1 (stereo partly drawn) [Compound 69, (6R)-8-methoxy-3,6-dimethyl-11-(pyrrolidin-1-yl)-1,2,3,4,5,6-hexahydro-2,6-methanobenzo[d]azocine] | – | – | 19.8 µM | – | > 20000 nM | 24.3 ± 2.96% | – |
| CN1CC[C@]2(C)c3cc(O)ccc3CC1C2N(C)C(=O)Nc1ccc(C(=O)O)cc1 (stereo in doubt) [Compound 45, 4-(3-((2R,6R,11S)-8-hydroxy-3,6-dimethyl-1,2,3,4,5,6-hexahydro-2,6-methanobenzo[d]azocin-11-yl)-3-methylureido)benzoic acid] | – | – | – | – | 3850 ± 839 nM | 17 ± 3.06% | Ki (κ opioid receptor [3]; bound in μM): > 20 µM |
| COc1ccc2c(c1)[C@@]1(C)CCN(C)C(C2)[C@@H]1c1cccc(C#N)c1 [Compound 36, 3-((6S,11R)-8-methoxy-3,6-dimethyl-1,2,3,4,5,6-hexahydro-2,6-methanobenzo[d]azocin-11-yl)benzonitrile] | – | – | 4.19 ± 1.05 µM | – | > 20000 nM | – | – |
| COc1ccc2c(c1)[C@@]1(C)CCN(CCC(C(=O)N(C)C)(c3ccccc3)c3ccccc3)C(C2)[C@H]1O [Compound 17, 4-((6R,11S)-11-hydroxy-8-methoxy-6-methyl-1,2,5,6-tetrahydro-2,6-methanobenzo[d]azocin-3(4H)-yl)-N,N-dimethyl-2,2-diphenylbutanamide] | – | – | 0.0899 ± 0.0147 µM | – | – | – | EC50 (κ opioid receptor [2]; [6]): > 20 µM |
| CN1CC[C@]2(C)c3cc(O)ccc3CC1[C@@H]2C(=O)Nc1ccc(C(=O)O)cc1 [Compound 52, 4-((6S,11R)-8-hydroxy-3,6-dimethyl-1,2,3,4,5,6-hexahydro-2,6-methanobenzo[d]azocine-11-carboxamido)benzoic acid] | – | – | – | – | 1030 ± 73.1 nM | 72.3 ± 3.48% | Ki (κ opioid receptor [3]; bound in μM): > 20 µM |
| COc1ccc2c(c1)[C@@]1(C)CCN(C)C(C2)[C@@H]1N(C)C(=O)/C=C/c1ccoc1 [Compound 16, (E)-3-(furan-3-yl)-N-((6R,11R)-8-methoxy-3,6-dimethyl-1,2,3,4,5,6-hexahydro-2,6-methanobenzo[d]azocin-11-yl)-N-methylacrylamide] | – | – | 0.186 ± 0.034 µM | 15 ± 1.53% | – | – | EC50 (κ opioid receptor [2]; [7]): 1.05 ± 0.262 µM |
| COc1ccc2c(c1)[C@@]1(C)CCN(C)C(C2)[C@@H]1c1cccc(OCc2ccccc2)c1 [Compound 61, (6S,11R)-11-(3-(benzyloxy)phenyl)-8-methoxy-3,6-dimethyl-1,2,3,4,5,6-hexahydro-2,6-methanobenzo[d]azocine] | – | – | 2.77 ± 0.85 µM | – | 5760 ± 1550 nM | 26.7 ± 0.88% | – |
